Experimental data from patent US20140106387A1, “METHOD FOR CONTROLLING NAD(P)/NAD(P)H RATIO BY OXIDOREDUCTASE” (MD BIOALPHA CO., LTD., priority 2006, published 2014).

Assays:
eNOS = experiment: phosphorylation of endothelial nitric oxide synthase (eNOS) in HUVEC; type: cell-based, human; settings: 10 μM
Procedure: It is well-known that activation of AMPK activates NRF-1 and facilitates mitochondrial biogenesis. In addition, NO/cGMP activates PGC-1α and NRF-1 to facilitate mitochondrial biogenesis. In order to ascertain whether an NQO1 activator, which activates AMPK, is involved in production of nitric oxide (NO), a degree of phosphorylation, leading to an increase in activity of endothelial nitric oxide synthase (eNOS), was determined. […] The culture medium was replaced with a serum free EBM2 medium, and cells were treated with pyrano-1,2-naphthoquinone (10 μM) for a predetermined time. Phosphorylated eNOS was observed using Anti-[…] eNOS.

[1] = glucose tolerance and insulin sensitivity in OLETF rats; type: in vivo, rat; settings: Days 3 and 21 after treatment
Procedure: Glucose tolerance test (GTT) was carried out for 12 h-fasted mice by a known method. As described above, 12 h-fasted mice received an insulin stimulation test
FIG. 45 is a graph showing glucose tolerance and insulin sensitivity measured in vehicle-treated ° LEIF rats and βL-treated OLETF rats. Glucose and insulin were i.p. and i.v. injected, respectively, and the blood glucose level was measured.

[2] = AMP/ATP, NAD+/NADH and NADP+/NADPH ratios in liver after intravenous administration; type: in vivo, mouse
Procedure: Acid extraction was used for analysis of an AOPN concentration in the cells and liver tissues. 400 μl of 6% HClO4 was added to the cells cultured in a 100 mm dish, whereas a two-fold volume of 6% HClO4 was added to the liver tissues which were then immediately homogenized. Each mixture was centrifuged at 14,000 g and 4° C. for 10 min, and the resulting supernatants were neutralized by addition of 1 M borate buffer (pH 11) containing 4 mM EDTA in an amount of 75%. Samples were aliquoted and stored at a temperature of −80° C.
Analysis of an RPN concentration in liver tissues was carried out using alkali extraction. An equal volume of ice-cold 0.5 M KOH was added to the liver tissues which were then immediately homogenized. Thereafter, a two-fold volume of ice-cold distilled water was added and mixed with the liver tissues for 2 min, and the mixture was centrifuged using an Amicon ultrafiltration membrane (MILLIPORE) at 14,000 g and 4° C. for 40 min. The thus-obtained filtrate was neutralized by addition of 1 M KH2PO4 (pH 6.5) in an amount of 10%. Samples were aliquoted and stored at a temperature of −70° C. Concentration determination was made within 72 hours.
A mobile phase was 100 mM ammonium acetate:MeOH (98:2, v/v), and preparations were filtered through a 0.22-μm Millipore filter. A flow rate was set to 0.8 mL/min and detection was made at 254 nm. Separation was carried out using a ZORBAX Bonus-RP C18 column (3.5 μm, 4.6×150 mm I.D., […]). The samples were maintained at 4° C. in a thermostatted autosampler until they were loaded onto the column.
In order to assay ATP, ADP, AMP, NAD and NADP levels, 450 μl of 5 mM ammonium acetate was added to 50 μl of a liver sample extracted with perchloric acid (HClO4) which was then diluted ten times. Diluted samples were vortexed and mixed for 1 min, and the mixture was filtered through a 0.2 μm nylon syringe filter (Whatman, Brentford, UK). Then, 5 μl of each aliquot was injected into a HPLC system. Each standard solution (50 μl) for these analytes was added to 50 μl of an extraction solution containing 2-chloroadenosine (internal standard) and 400 μl of 5 mM ammonium acetate, and mixed and filtered in the same manner as in the above samples. For analysis of NADH and NADPH, each 100 μl of liver samples extracted with a potassium hydroxide (KOH) solution was diluted twice with an equal amount of a 5 mM ammonium acetate (KOH solution for standards). HPLC system consists of an Agilent 1100 series vacuum degasser, a binary pump, an autosampler, a thermostatted column compartment, and a DAD detector (Agilent Technologies, Palo Alto, Calif.). Adenine and nucleotide analogues were separated by Waters XTena MS C18 2.1×150 mm, 3.5 μm column (Waters, Milford, Mass., USA) chromatography using a gradient method. A mobile phase for adenine and nucleotide analogues was 5 mM ammonium acetate (A) and methanol (B). NAD^+-related compounds were separated by linear gradient elution of initial 98% (A) to final 70% (B) at a time point of 8 min. The mobile phase was developed at 70% (B) for 7 min. Finally, the mobile phase was returned to 98% (A) at a point of 16 min, and reequilibrated to 98% (A) for 12 min. A flow rate was set to 0.2 mL/min throughout the entire period of time. An injection volume was 5 μl. Electrospray-ionization mass spectrometry (ESI-MS) was carried out in a positive ion mode using MDS Sciex API 4000 Triple Quadrupole Mass Spectrometer (Applied Biosystems, Ontario, Calif.).
5 mg/kg of pyrano-1,2-naphthoquinone was intravenously administered to a tail vein of DIO mice and changes in an NADH amount and an NAD^+/NADH ratio of liver tissues were examined for 6 hours.

[3] = blood metabolic parameters in C57BL/6 DIO mice; type: in vivo, mouse
Procedure: O2 consumption of animals was recorded by a known method. For indirect calorimetry, mice were individually housed in calorimetry chambers (Oxymax OPTO-M3 system; Columbus Instruments, Columbus, Ohio). Animals were allowed to acclimate to a new environment for 48 hours prior to the experiment, and amounts of O2 consumption and CO2 production were measured for […] every 30 minutes. Mice were given free access to food and drinking water during the first 24 h period, and animals were given access to drinking water only during the second 24 h period. Blood samples were taken from a heparinized tube, immediately placed on ice, centrifuged and stored at −20[…] for future use. Enzymatic colorimetry was employed for quantification of triglyceride (TG), total cholesterol, free fatty acids, and glucose (Beckman Instruments, CA). Plasma insulin (Linco Research, MO), TNFα (R&D System), adiponectin (Linco Research, MO), resistin (KOMED) and leptin (Linco Research, MO) were quantified by ELISA.

HEK293 cells = experiment: mitochondrial oxygen consumption in HEK293 cells; type: cell-based, human
Source text: FIG. 22 is a graph showing monitoring results of mitochondrial oxygen consumption using a Clark-type oxygen electrode;

[4] = 5 mg/kg intravenous, liver of DIO mice

**Q.** For CC1(C)CCC2=C(O1)c1ccccc1C(=O)C2=O [βL, 2,2-Dimethyl-3,4-dihydro-2H-benzo[h]chromene-5,6-dione], which “time of maximum increase of phosphorylation of eNOS” value (eNOS) is on record?
**A.** 30 min

**Q.** And the “phosphorylation of eNOS 2 hours later” value (eNOS; 2 hours)?
**A.** not observed

**Q.** What about the “glucose tolerance and insulin sensitivity” value [1] of the same molecule?
**A.** improvements in glucose tolerance and insulin sensitivity

**Q.** And the “numerical value of NADP+” value ([2]; 5 mg/kg intravenous, liver)?
**A.** no significant change

**Q.** And the “time point of maximum NAD+/NADPH ratio” value ([2]; 5 mg/kg intravenous, liver)?
**A.** 120 min

**Q.** What about the “time point of highest AMP/ATP ratio” value [2, 4] of the same molecule?
**A.** 30 min

**Q.** What about the “time point of maximum NAD+ amount and NAD+/NADH ratio” value [2, 4] of the same molecule?
**A.** 120 min

**Q.** And the “time point of maximum increase of AMP concentration” value [2, 4]?
**A.** 30 min

**Q.** And the “time point of recovery of AMP concentration to a normal level” value [2, 4]?
**A.** 120 min

**Q.** What about the “time point of recovery of AMP/ATP ratio to the initial state” value [2, 4] of the same molecule?
**A.** 360 min

**Q.** What about the “changes in the AMP/ATP and NAD+/NADP ratios” value ([2]; DIO mice) of the same molecule?
**A.** significant changes

**Q.** What about the “AMP/ATP and NAD+/NADH ratios in the liver compared to control group” value ([2]; intravenous (IV) injection) of the same molecule?
**A.** higher

**Q.** And the “blood level of resistin” value ([3]; 50 mg/kg daily oral)?
**A.** significantly improved

**Q.** What about the “insulin resistance and leptin resistance” value ([3]; 50 mg/kg daily oral) of the same molecule?
**A.** improved

**Q.** What about the “blood fat and glucose levels” value ([3]; Days 3, 7, 14, 28 and 56, 50 mg/kg daily oral) of the same molecule?
**A.** significantly improved

**Q.** What about the increased oxygen consumption (HEK293 cells) of the same molecule?
**A.** not observed
